# Test results from patent US20180118756A1, “COMPOSITIONS AND METHODS OF MODULATING SHORT-CHAIN DEHYDROGENASE ACTIVITY” (CASE WESTERN RESERVE UNIVERSITY, priority 2015, published 2018).
# Target: T1, recombinant 15-PGDH (Homo sapiens, UniProt P15428)
# T1 sequence (P15428 1-266): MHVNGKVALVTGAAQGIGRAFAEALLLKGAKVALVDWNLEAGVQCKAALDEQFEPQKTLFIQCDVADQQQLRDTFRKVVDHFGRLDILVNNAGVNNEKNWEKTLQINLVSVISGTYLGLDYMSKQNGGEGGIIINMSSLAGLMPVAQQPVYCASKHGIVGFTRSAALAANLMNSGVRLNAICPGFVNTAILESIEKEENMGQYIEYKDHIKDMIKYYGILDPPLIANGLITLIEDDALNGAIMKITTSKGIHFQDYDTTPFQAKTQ
# Experiment: IC50 for inhibiting enzymatic activity of recombinant 15-PGDH in an in vitro assay
# Format: biochemical
# Settings: Enzyme Inhibitor IC50 (nM) at 5 nM 15-PGDH, recombinant human 15-PGDH at 5 nM, in vitro
row,IC50 [nM],Structure (SMILES)
1,4,"CCCC[S+]([O-])c1sc2nc(-c3nccs3)cc(-c3ccc(C(=O)NCCO)cc3)c2c1N (stereo not shown) [SW 212831, 4-(3-amino-2-(butylsulfinyl)-6-(thiazol-2-yl)thieno[2,3-b]pyridin-4-yl)-N-(2-hydroxyethyl)benzamide]"
2,3.3,"CCCC[S+]([O-])c1sc2nc(-c3nccs3)cc(-c3ccc(COC(=O)NCCN(C)C)cc3)c2c1N (stereo not shown) [SW 212834, 4-(3-amino-2-(butylsulfinyl)-6-(thiazol-2-yl)thieno[2,3-b]pyridin-4-yl)benzyl (2-(dimethylamino)ethyl)carbamate]"
3,4.2,"C=CCNC(=O)COc1ccc(-c2cc(-c3nccs3)nc3sc([S+]([O-])CCCC)c(N)c23)cc1 (stereo not shown) [SW 212835, N-allyl-2-(4-(3-amino-2-(butylsulfinyl)-6-(thiazol-2-yl)thieno[2,3-b]pyridin-4-yl)phenoxy)acetamide]"
4,4,"CCCC[S+]([O-])c1sc2nc(-c3nccs3)cc(-c3ccc(CC(=O)OC)cc3)c2c1N (stereo not shown) [SW 213150, Methyl 2-(4-(3-amino-2-(butylsulfinyl)-6-(thiazol-2-yl)thieno[2,3-b]pyridin-4-yl)phenyl)acetate]"
5,2,"CCCC[S+]([O-])c1sc2nc(-c3nccs3)cc(-c3ccc(COCCO)cc3)c2c1N (stereo not shown) [SW 213153, 2-((4-(3-amino-2-(butylsulfinyl)-6-(thiazol-2-yl)thieno[2,3-b]pyridin-4-yl)benzyl)oxy)ethan-1-ol]"
6,19,"CCCC[S+]([O-])c1sc2nc(-c3nccs3)cc(-c3cnc(OC)n3C)c2c1N (stereo not shown) [SW 213155, 2-(butylsulfinyl)-4-(2-methoxy-1-methyl-1H-imidazol-5-yl)-6-(thiazol-2-yl)thieno[2,3-b]pyridin-3-amine]"
7,7.5,"CCCC[S+]([O-])c1sc2nc(-c3ncc(C)s3)cc(-c3cnc(C)n3C)c2c1N (stereo not shown) [SW 213208, 2-(butylsulfinyl)-4-(1,2-dimethyl-1H-imidazol-5-yl)-6-(5-methylthiazol-2-yl)thieno[2,3-b]pyridin-3-amine]"
8,2.8,"CCCC[S+]([O-])c1sc2nc(-c3nccs3)cc(-c3ccc(CNC(=O)NCCO)cc3)c2c1N (stereo not shown) [SW 213209, 1-(4-(3-amino-2-(butylsulfinyl)-6-(thiazol-2-yl)thieno[2,3-b]pyridin-4-yl)benzyl)-3-(2-hydroxyethyl)urea]"
9,5,"CCCC[S+]([O-])c1sc2nc(-c3nccs3)cc(-c3ccc(CNC(=O)CN(C)C)cc3)c2c1N (stereo not shown) [SW 213210, N-(4-(3-amino-2-(butylsulfinyl)-6-(thiazol-2-yl)thieno[2,3-b]pyridin-4-yl)benzyl)-2-(dimethylamino)acetamide]"
10,2.9,"CCCC[S+]([O-])c1sc2nc(-c3nccs3)cc(-c3ccc(CNC(=O)COC)cc3)c2c1N (stereo not shown) [SW 213211, N-(4-(3-amino-2-(butylsulfinyl)-6-(thiazol-2-yl)thieno[2,3-b]pyridin-4-yl)benzyl)-2-methoxyacetamide]"
11,3.1,"CCCC[S+]([O-])c1sc2nc(-c3nccs3)cc(-c3ccnn3C)c2c1N (stereo not shown) [SW 217780, 2-(butylsulfinyl)-4-(1-methyl-1H-pyrazol-5-yl)-6-(thiazol-2-yl)thieno[2,3-b]pyridin-3-amine]"
12,5.4,"CCCC[S+]([O-])c1sc2nc(-c3nccs3)cc(-c3cnnn3C)c2c1N (stereo not shown) [SW 217782, 2-(butylsulfinyl)-4-(1-methyl-1H-1,2,3-triazol-5-yl)-6-(thiazol-2-yl)thieno[2,3-b]pyridin-3-amine]"
13,2.2,"CCCC[S+]([O-])c1sc2nc(-c3nccs3)cc(-c3cocn3)c2c1N (stereo not shown) [SW 217936, 2-(butylsulfinyl)-4-(oxazol-4-yl)-6-(thiazol-2-yl)thieno[2,3-b]pyridin-3-amine]"
14,1.8,"CCCC[S+]([O-])c1sc2nc(-c3nccs3)cc(-c3nc(C)cs3)c2c1N (stereo not shown) [SW 217937, 2-(butylsulfinyl)-4-(4-methylthiazol-2-yl)-6-(thiazol-2-yl)thieno[2,3-b]pyridin-3-amine]"
15,2.1,"CCCC[S+]([O-])c1sc2nc(-c3nccs3)cc(-c3scnc3C)c2c1N (stereo not shown) [SW 217938, 2-(butylsulfinyl)-4-(4-methylthiazol-5-yl)-6-(thiazol-2-yl)thieno[2,3-b]pyridin-3-amine]"
16,4.5,"CCCC[S+]([O-])c1sc2nc(-c3nccs3)cc(-c3ocnc3C)c2c1N (stereo not shown) [SW 217939, 2-(butylsulfinyl)-4-(4-methyloxazol-5-yl)-6-(thiazol-2-yl)thieno[2,3-b]pyridin-3-amine]"
17,3,"COCCC[S+]([O-])c1sc2nc(-c3nccs3)nc(-c3ccccc3)c2c1N (stereo not shown) [SW 217995, 6-((3-methoxypropyl)sulfinyl)-4-phenyl-2-(thiazol-2-yl)thieno[2,3-d]pyrimidin-5-amine]"

row,IC50 [nM],Structure (SMILES)
1,3.4,"COCC[S+]([O-])c1sc2nc(-c3nccs3)nc(-c3ccccc3)c2c1N (stereo not shown) [SW 217996, 6-((2-methoxyethyl)sulfinyl)-4-phenyl-2-(thiazol-2-yl)thieno[2,3-d]pyrimidin-5-amine]"
2,12,"Nc1c([S+]([O-])c2ccccc2)sc2nc(-c3nccs3)cc(-c3ccc(OCCO)cc3)c12 (stereo not shown) [SW 217997, 2-(4-(3-amino-2-(phenylsulfinyl)-6-(thiazol-2-yl)thieno[2,3-b]pyridin-4-yl)phenoxy)ethan-1-ol]"
3,3.2,"CCCC[S+]([O-])c1sc2nc(-c3nccs3)cc(-c3ccc(OCCF)cc3)c2c1N (stereo not shown) [SW 217998, 2-(butylsulfinyl)-4-(4-(2-fluoroethoxy)phenyl)-6-(thiazol-2-yl)thieno[2,3-b]pyridin-3-amine]"
4,6890,"CCCC[S+]([O-])c1sc2nc(-c3cccs3)cc(-c3ccccc3)c2c1NC(C)=O (stereo not shown) [SW 218030, N-(2-(butylsulfinyl)-4-phenyl-6-(thiophen-2-yl)thieno[2,3-b]pyridin-3-yl)acetamide]"
5,1380,"CCCC[S+]([O-])c1sc2nc(-c3cccs3)cc(-c3ccccc3)c2c1NC(=O)OC (stereo not shown) [SW 218031, methyl (2-(butylsulfinyl)-4-phenyl-6-(thiophen-2-yl)thieno[2,3-b]pyridin-3-yl)carbamate]"
6,41,"Nc1c(C(=O)N2CCCCC2)sc2nc(-c3cccs3)cc(-c3ccccc3)c12 [SW 218331, (3-amino-4-phenyl-6-(thiophen-2-yl)thieno[2,3-b]pyridin-2-yl)(piperidin-1-yl)methanone]"
7,113,"CCCNS(=O)(=O)c1sc2nc(-c3cccs3)cc(-c3ccccc3)c2c1N [SW 218332, 3-amino-4-phenyl-N-propyl-6-(thiophen-2-yl)thieno[2,3-b]pyridine-2-sulfonamide]"
8,9.1,"CCOC[S+]([O-])c1sc2nc(-c3nccs3)cc(-c3cnc(C)n3C)c2c1N (stereo not shown) [SW 218398, 4-(1,2-dimethyl-1H-imidazol-5-yl)-2-((ethoxymethyl)sulfinyl)-6-(thiazol-2-yl)thieno[2,3-b]pyridin-3-amine]"
9,135,"CCCC[S+]([O-])c1sc2nc(-c3cccs3)cc(-c3ccccc3)c2c1O (stereo not shown) [SW 218399, 2-(butylsulfinyl)-4-phenyl-6-(thiophen-2-yl)thieno[2,3-b]pyridin-3-ol]"
10,> 100,Nc1c(S(=O)(=O)N2CCCCC2)sc2nc(-c3cccs3)cc(-c3ccccc3)c12 [SW 218400]
11,3.4,"CCCC[S+]([O-])c1sc2nc(-c3nccs3)cc(-c3c(C)ncn3C)c2c1N (stereo not shown) [SW 218475, 2-(butylsulfinyl)-4-(1,4-dimethyl-1H-imidazol-5-yl)-6-(thiazol-2-yl)thieno[2,3-b]pyridin-3-amine]"
12,2,"CCCC[S+]([O-])c1sc2nc(-c3nccs3)cc(-c3cnc(CC)n3C)c2c1N (stereo not shown) [SW 218476, 2-(butylsulfinyl)-4-(2-ethyl-1-methyl-1H-imidazol-5-yl)-6-(thiazol-2-yl)thieno[2,3-b]pyridin-3-amine]"
13,3.8,"CCCC[S+]([O-])c1sc2nc(-c3nccs3)cc(-c3ncn(C)c3C)c2c1N (stereo not shown) [SW 218477, 2-(butylsulfinyl)-4-(1,5-dimethyl-1H-imidazol-4-yl)-6-(thiazol-2-yl)thieno[2,3-b]pyridin-3-amine]"
14,2.4,"CCCC[S+]([O-])c1sc2nc(-c3nccs3)cc(-c3cnc(C)n3C3CC3)c2c1N (stereo not shown) [SW 218478, 2-(butylsulfinyl)-4-(1-cyclopropyl-2-methyl-1H-imidazol-5-yl)-6-(thiazol-2-yl)thieno[2,3-b]pyridin-3-amine]"
15,3.3,"Nc1c([S+]([O-])C2CCCCC2)sc2nc(-c3cccs3)cc(-c3ccccc3)c12 (stereo not shown) [SW 218520, 2-(cyclohexylsulfinyl)-4-phenyl-6-(thiophen-2-yl)thieno[2,3-b]pyridin-3-amine]"
16,2.2,"CCCC[S+]([O-])c1sc2nc(-c3nccs3)cc(-c3nccn3CC)c2c1N (stereo not shown) [SW 218521, 2-(butylsulfinyl)-4-(1-ethyl-1H-imidazol-2-yl)-6-(thiazol-2-yl)thieno[2,3-b]pyridin-3-amine]"
17,2.5,"CCCC[S+]([O-])c1sc2nc(-c3nccs3)cc(-c3nc(C)c(C)n3C)c2c1N (stereo not shown) [SW 218522, 2-(butylsulfinyl)-6-(thiazol-2-yl)-4-(1,4,5-trimethyl-1H-imidazol-2-yl)thieno[2,3-b]pyridin-3-amine]"

# Same assay, conditions: read-out: Enzyme Inhibitor IC50 (nM) at 5 nM 15-PGDH; recombinant human 15-PGDH at 5 nM, in vitro
row,IC50 [nM],Structure (SMILES)
1,0.9,"CCCC[S@@+]([O-])c1sc2nc(-c3nccs3)cc(-c3cncn3C)c2c1N (single isomer, unassigned) [(+)-SW 217985]"
2,765,"CCCC[S@+]([O-])c1sc2nc(-c3nccs3)cc(-c3cncn3C)c2c1N (single isomer, unassigned) [(−)-SW 217986]"

# Same assay, conditions: recombinant human 15-PGDH at 5 nM
row,extent of 15-PGDH inhibition (remark),Structure (SMILES)
1,incomplete inhibition,Nc1c(S(=O)(=O)N2CCCCC2)sc2nc(-c3cccs3)cc(-c3ccccc3)c12 [SW 218400]
